Reference: PubChem BioAssay AID256 (DTP/NCI, 2004)
Where “and” joins values, the source holds several entries; their conditions need not be identical. Equal entries are not always repeated. Toxic doses and inconclusive results are not listed. How the source made its calls: active means survival T/C of 150% or more; inactive means T/C below 125% in these data.

Tested on: CD2F1 mice, L1210 leukemia ip, survival T/C
Assay: NCI In Vivo Anticancer Drug Screen. Data for tumor model L1210 Leukemia (intraperitoneal) in CD2F1 (CDF1) mice
Conditions: higher = longer survival
Summary of the method: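 Ratio T/C, where T is the treated-group value and C the vehicle-dosed control value, from mice implanted with a transplantable tumor.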

[1] = endpoint: mean survival time, dose: 12.5 mg/kg/injection, schedule: Q01DX009 (ip), vehicle: saline with Tween-80
[2] = endpoint: mean survival time, dose: 12.5 mg/kg/injection, schedule: Q04DX003 (ip), vehicle: saline with Tween-80
[3] = endpoint: mean survival time, dose: 25.0 mg/kg/injection, schedule: Q01DX009 (ip), vehicle: saline with Tween-80
[4] = endpoint: mean survival time, dose: 25.0 mg/kg/injection, schedule: Q04DX003 (ip), vehicle: saline with Tween-80
[5] = endpoint: mean survival time, dose: 100.0 mg/kg/injection, schedule: Q04DX002 (ip), vehicle: saline with Tween-80
[6] = endpoint: mean survival time, dose: 100.0 mg/kg/injection, schedule: Q01DX009 (ip), vehicle: saline with Tween-80
[7] = endpoint: mean survival time, dose: 200.0 mg/kg/injection, schedule: Q01DX009 (ip), vehicle: saline with Tween-80
[8] = endpoint: mean survival time, dose: 400.0 mg/kg/injection, schedule: Q01DX009 (ip), vehicle: saline with Tween-80
[9] = endpoint: mean survival time, dose: 100.0 mg/kg/injection, schedule: Q04DX003 (ip), vehicle: saline with Tween-80
[10] = endpoint: mean survival time, dose: 200.0 mg/kg/injection, schedule: Q04DX003 (ip), vehicle: saline with Tween-80
[11] = endpoint: mean survival time, dose: 400.0 mg/kg/injection, schedule: Q04DX003 (ip), vehicle: saline with Tween-80

Measured: T/C

Cn1c(=O)c2[n-]cnc2n(C)c1=O.[NH2-].[NH2-].[NH2-].[NH2-].[NH2-].[Ru+6]
inactive: endpoint: mean survival time, dose: 6.25 mg/kg/injection, schedule: Q04DX003 (ip), vehicle: water 106 % of control | endpoint: mean survival time, dose: 12.5 mg/kg/injection, schedule: Q04DX003 (ip), vehicle: water 102 % of control | endpoint: mean survival time, dose: 25.0 mg/kg/injection, schedule: Q04DX003 (ip), vehicle: water 104 % of control | endpoint: mean survival time, dose: 50.0 mg/kg/injection, schedule: Q04DX003 (ip), vehicle: water 104 % of control | endpoint: mean survival time, dose: 100.0 mg/kg/injection, schedule: Q04DX003 (ip), vehicle: water 104 % of control

C=C1C(=O)OC2CC3(C)CCCC(C)C34OC4C12 (stereo not drawn)
inactive: endpoint: mean survival time, dose: 50.0 mg/kg/injection, schedule: Q04DX002 (ip), vehicle: saline 90 % of control | endpoint: mean survival time, dose: 100.0 mg/kg/injection, schedule: Q04DX002 (ip), vehicle: saline 98 % of control | endpoint: mean survival time, dose: 200.0 mg/kg/injection, schedule: Q04DX002 (ip), vehicle: saline 114 % of control

Cc1ccc(S(=O)(=O)Nc2c([N+](=O)[O-])cc([N+](=O)[O-])c3ccccc23)cc1
inactive: endpoint: mean survival time, dose: 6.25 mg/kg/injection, schedule: Q01DX009 (ip), vehicle: saline with Tween-80 104 % of control | endpoint: mean survival time, dose: 6.25 mg/kg/injection, schedule: Q04DX003 (ip), vehicle: saline with Tween-80 100 % of control | [1] 100 % of control | [2] 96 % of control | [3] 103 % of control | [4] 100 % of control

COC(=O)c1cccc(I)c1
inactive: [5] 100 % of control | endpoint: mean survival time, dose: 200.0 mg/kg/injection, schedule: Q04DX002 (ip), vehicle: saline with Tween-80 100 % of control | endpoint: mean survival time, dose: 400.0 mg/kg/injection, schedule: Q04DX002 (ip), vehicle: saline with Tween-80 96 % of control

Cc1cc(C)c2nc(N)sc2c1
inactive: endpoint: mean survival time, dose: 25.0 mg/kg/injection, schedule: Q04DX002 (ip), vehicle: saline with Tween-80 96 % of control | endpoint: mean survival time, dose: 50.0 mg/kg/injection, schedule: Q04DX002 (ip), vehicle: saline with Tween-80 93 % of control | [5] 93 % of control

CCN(CC)C(=O)CSC#N
inactive: endpoint: mean survival time, dose: 12.5 mg/kg/injection, schedule: Q01DX001 (ip), vehicle: Klucel (hydroxypropylcellulose) (HPC) 96 % of control | endpoint: mean survival time, dose: 25.0 mg/kg/injection, schedule: Q01DX001 (ip), vehicle: Klucel (hydroxypropylcellulose) (HPC) 100 % of control

CC(N)C(=O)NC1C(CO)OC(n2cnc3c(N)ncnc32)C1O (stereo not drawn)
inactive: endpoint: mean survival time, dose: 100.0 mg/kg/injection, schedule: Q01DX001 (ip), vehicle: saline 100 % of control | endpoint: mean survival time, dose: 200.0 mg/kg/injection, schedule: Q01DX001 (ip), vehicle: saline 97 % of control | endpoint: mean survival time, dose: 400.0 mg/kg/injection, schedule: Q01DX001 (ip), vehicle: saline 100 % of control

COc1cc2c(cc1O)CCCCC2O (stereo not drawn)
inactive: endpoint: mean survival time, dose: 50.0 mg/kg/injection, schedule: Q01DX009 (ip), vehicle: other 107 % of control | endpoint: mean survival time, dose: 100.0 mg/kg/injection, schedule: Q01DX009 (ip), vehicle: other 100 % of control | endpoint: mean survival time, dose: 200.0 mg/kg/injection, schedule: Q01DX009 (ip), vehicle: other 92 % of control

Cc1ccc(S(=O)(=O)OCC2C(COS(=O)(=O)c3ccc(C)cc3)C3CCC2C2C3C3C2C2(C)C(=O)C3(C)C(c3ccccc3)=C2c2ccccc2)cc1 (stereo not drawn)
inactive: endpoint: mean survival time, dose: 100.0 mg/kg/injection, schedule: Q04DX002 (ip), vehicle: other 102 % of control | endpoint: mean survival time, dose: 200.0 mg/kg/injection, schedule: Q04DX002 (ip), vehicle: other 102 % of control | endpoint: mean survival time, dose: 400.0 mg/kg/injection, schedule: Q04DX002 (ip), vehicle: other 111 % of control

O=S(=O)(O)c1cccc2cnccc12
inactive: [6] 98 % of control | endpoint: mean survival time, dose: 100.0 mg/kg/injection, schedule: Q04DX003 (ip), vehicle: saline sonified 93 % of control | [7] 96 % of control | endpoint: mean survival time, dose: 200.0 mg/kg/injection, schedule: Q04DX003 (ip), vehicle: saline sonified 98 % of control | [8] 93 % of control | endpoint: mean survival time, dose: 400.0 mg/kg/injection, schedule: Q04DX003 (ip), vehicle: saline sonified 98 % of control

COc1ccc(CCN2C(=O)C=CC2=O)cc1OC
inactive: endpoint: mean survival time, dose: 5.0 mg/kg/injection, schedule: Q01DX001 (ip), vehicle: saline 94 % of control | endpoint: mean survival time, dose: 5.0 mg/kg/injection, schedule: Q01DX009 (ip), vehicle: saline 94 % of control | endpoint: mean survival time, dose: 10.0 mg/kg/injection, schedule: Q01DX001 (ip), vehicle: saline 94 % of control | endpoint: mean survival time, dose: 10.0 mg/kg/injection, schedule: Q01DX009 (ip), vehicle: saline 97 % of control | endpoint: mean survival time, dose: 20.0 mg/kg/injection, schedule: Q01DX001 (ip), vehicle: saline 91 % of control

O=C(O)c1cc(Cl)[nH]c(=O)c1
inactive: [9] 91 % of control | [10] 91 % of control | [11] 91 % of control

[N-]=[N+]=CC(=O)NCC(=O)NNC(=O)c1ccccc1
inactive: [6] 105 % of control | [9] 96 % of control | [7] 107 % of control | [10] 104 % of control | [8] 108 % of control | [11] 105 % of control

O.[Cl][Pt].[S-]CCN1CCCCC1
inactive: endpoint: mean survival time, dose: 12.5 mg/kg/injection, schedule: Q04DX003 (ip), vehicle: distilled water + Tween-80 96 % of control | endpoint: mean survival time, dose: 25.0 mg/kg/injection, schedule: Q04DX003 (ip), vehicle: distilled water + Tween-80 100 % of control | endpoint: mean survival time, dose: 50.0 mg/kg/injection, schedule: Q04DX003 (ip), vehicle: distilled water + Tween-80 98 % of control | endpoint: mean survival time, dose: 100.0 mg/kg/injection, schedule: Q04DX003 (ip), vehicle: distilled water + Tween-80 90 % of control | endpoint: mean survival time, dose: 200.0 mg/kg/injection, schedule: Q04DX003 (ip), vehicle: distilled water + Tween-80 93 % of control

O=CNNC=O
inactive: [6] 94 % of control | [9] 107 % of control | [7] 92 % of control | [10] 96 % of control | [8] 97 % of control | [11] 100 % of control

O=c1[nH]cnc2nn(C3OC(CO)C(O)C3O)nc12 (stereo not drawn)
inactive: endpoint: median survival time, dose: 12.5 mg/kg/injection, schedule: Q01DX005 (ip), vehicle: saline 94 % of control | endpoint: median survival time, dose: 25.0 mg/kg/injection, schedule: Q01DX005 (ip), vehicle: saline 94 % of control | endpoint: median survival time, dose: 50.0 mg/kg/injection, schedule: Q01DX005 (ip), vehicle: saline 91 % of control | endpoint: median survival time, dose: 100.0 mg/kg/injection, schedule: Q01DX005 (ip), vehicle: saline 97 % of control and 103 % of control | endpoint: median survival time, dose: 200.0 mg/kg/injection, schedule: Q01DX005 (ip), vehicle: saline 101 % of control and 107 % of control | endpoint: median survival time, dose: 400.0 mg/kg/injection, schedule: Q01DX005 (ip), vehicle: saline 103 % of control

CSC(=S)N/N=C/c1ccccc1O
inactive: [1] 95 % of control | [2] 100 % of control | [3] 87 % of control | [4] 97 % of control | endpoint: mean survival time, dose: 50.0 mg/kg/injection, schedule: Q04DX003 (ip), vehicle: saline with Tween-80 95 % of control
